Earlier results, collected in PubChem BioAssay AID1259409 (Chemical Carcinogenesis Research Information System (CCRIS), 2018).

System: rodent chemically induced tumor inhibition, incidence and multiplicity
Test: CCRIS tumor inhibitor studies

C=C1/C(=C\C=C2/CCC[C@]3(C)[C@@H]([C@H](C)CC[C@@H](CC)C(C)C)CC[C@@H]23)C[C@@H](O)C[C@@H]1O
tumour outcome (control, treated, inhibition, significance) (Carcinogen: 7,12-DIMETHYLBENZ[A]ANTHRACENE (57-97-6), Dose [Inhibitor]: 40 MG/KG DIET 1 WK AFTER CARCINOGEN TO END, Route [Inhibitor]: DIET, Species: RAT, Strain/Sex: SPRAGUE-DAWLEY/FEMALE, Target Tissue: Type of Lesion: MAMMARY GLAND: TUMOR, Dose [Carcinogen]: 15 MG AT 50 D OF AGE, ONCE): 85%, 50%, 41%, p<0.05 | tumour outcome (control, treated, inhibition, significance) (Carcinogen: 7,12-DIMETHYLBENZ[A]ANTHRACENE (57-97-6), Dose [Inhibitor]: 40 MG/KG DIET 2 WKS BEFORE CARCINOGEN AND 1 WK AFTER CARCINOGEN, Route [Inhibitor]: DIET, Species: RAT, Strain/Sex: SPRAGUE-DAWLEY/FEMALE, Target Tissue: Type of Lesion: MAMMARY GLAND: TUMOR, Dose [Carcinogen]: 15 MG AT 50 D OF AGE, ONCE): 85%, 70%, 18%, not significant | tumour outcome (control, treated, inhibition, significance) (Carcinogen: 7,12-DIMETHYLBENZ[A]ANTHRACENE (57-97-6), Dose [Inhibitor]: 40 MG/KG DIET 2 WKS BEFORE CARCINOGEN TO END, Route [Inhibitor]: DIET, Species: RAT, Strain/Sex: SPRAGUE-DAWLEY/FEMALE, Target Tissue: Type of Lesion: MAMMARY GLAND: TUMOR, Dose [Carcinogen]: 15 MG AT 50 D OF AGE, ONCE): 85%, 50%, 41%, not calculated | outcome (Carcinogen: AZOXYMETHANE (25843-45-2), Dose [Inhibitor]: 25 UG/KG DIET 2 WKS AFTER CARCINOGEN TO END (STUDY DURATION: 10 WKS), Route [Inhibitor]: DIET, Species: MOUSE, Strain/Sex: CF-1, Target Tissue: Type of Lesion: COLON: TOTAL ABERRANT CRYPT FOCI (SURROGATE FOR COLON TUMOR), Dose [Carcinogen]: 10 MG/KG BW WEEKLY FOR 2 WKS (STUDY DURATION: 10 WKS)): 9.6, 2.0, 79%, not calculated | outcome (Carcinogen: AZOXYMETHANE (25843-45-2), Dose [Inhibitor]: 25 UG/KG DIET 2 WKS BEFORE CARCINOGEN TO 2 WKS AFTER (STUDY DURATION: 10 WKS), Route [Inhibitor]: DIET, Species: MOUSE, Strain/Sex: CF-1, Target Tissue: Type of Lesion: COLON: TOTAL ABERRANT CRYPT FOCI (SURROGATE FOR COLON TUMOR), Dose [Carcinogen]: 10 MG/KG BW WEEKLY FOR 2 WKS (STUDY DURATION: 10 WKS)): 9.6, 2.8, 71%, not calculated | outcome (Carcinogen: AZOXYMETHANE (25843-45-2), Dose [Inhibitor]: 25 UG/KG DIET 2 WKS BEFORE CARCINOGEN TO END (STUDY DURATION: 10 WKS), Route [Inhibitor]: DIET, Species: MOUSE, Strain/Sex: CF-1, Target Tissue: Type of Lesion: COLON: TOTAL ABERRANT CRYPT FOCI (SURROGATE FOR COLON TUMOR), Dose [Carcinogen]: 10 MG/KG BW WEEKLY FOR 2 WKS (STUDY DURATION: 10 WKS)): 9.6, 1.8, 81%, not calculated | outcome (Carcinogen: AZOXYMETHANE (25843-45-2), Dose [Inhibitor]: 25 UG/KG DIET 7 D BEFORE CARCINOGEN TO END OF STUDY, Route [Inhibitor]: DIET, Species: MOUSE, Strain/Sex: CF-1, Target Tissue: Type of Lesion: COLON: ABERRANT CRYPT FOCI (SURROGATE FOR COLON TUMOR), Dose [Carcinogen]: 10 MG/KG BW WEEKLY FOR 2 WKS): 29%, 1.4, 95%, p<0.001 | outcome (Carcinogen: N-METHYL-N-NITROSOUREA ( 684-93-5), Dose [Inhibitor]: 0, 25, 50 UG/KG DIET 2 WKS BEFORE CARCINOGEN CONTINUING FOR 120 D (STUDY DURATION: 120 D), Dose [Inhibitor]: 0, 25, 50 UG/KG DIET 2 WKS BEFORE CARCINOGEN CONTINUING FOR 120 D (STUDY DURATION: 120 D), Route [Inhibitor]: DIET, Species: RAT, Strain/Sex: SPRAGUE-DAWLEY/FEMALE, Target Tissue: Type of Lesion: MAMMARY GLAND: TUMOR, Dose [Carcinogen]: 50 MG/KG BW ONCE): 80%, 53%, 34%, not calculated; 47%, 41%, not calculated | tumour outcome (control, treated, inhibition, significance) (Carcinogen: N-METHYL-N-NITROSOUREA, 684-93-5, Dose [Inhibitor]: 0, 25 UG/KG DIET AT 65 D OF AGE FOR THE DURATION OF THE STUDY (STUDY DURATION: 120 D), Route [Inhibitor]: ORAL, Species: RAT, Strain/Sex: SPRAGUE-DAWLEY, Target Tissue: Type of Lesion: MAMMARY GLAND: TUMOR, Dose [Carcinogen]: 50 MG/KG BW ONCE AT 80 D OF AGE, Promoter: NONE): 12/15 (80%), 8/15 (53%), 33%, not significant | tumour outcome (control, treated, inhibition, significance) (Carcinogen: N-METHYL-N-NITROSOUREA, 684-93-5, Dose [Inhibitor]: 0, 50 UG/KG DIET AT 65 D OF AGE FOR THE DURATION OF THE STUDY (STUDY DURATION: 120 D), Route [Inhibitor]: ORAL, Species: RAT, Strain/Sex: SPRAGUE-DAWLEY, Target Tissue: Type of Lesion: MAMMARY GLAND: TUMOR, Dose [Carcinogen]: 50 MG/KG BW ONCE AT 80 D OF AGE, Promoter: NONE): 12/15 (80%), 7/15 (47%), 41%, p=0.03

NCCOc1c(Cl)cc(Cl)cc1-c1ccccc1
tumour outcome (control, treated, inhibition, significance) (Carcinogen: ETHYL CARBAMATE, 51-79-6, Dose [Inhibitor]: 0, 0.04 MG/G PER DOSE IN 0.01 ML OF 0.9% SALINE ADMINISTERED IN 4 DOSES AT 3 HR INTERVALS BEGINNING 30 MIN PRIOR TO CARC, Route [Inhibitor]: INTRAPERITONEAL, Species: MOUSE, Strain/Sex: B6C3F1/MALE, Target Tissue: Type of Lesion: LIVER: HEPATOMA, Dose [Carcinogen]: 0.125 MG/G ONCE, Promoter: NONE USED): 21/21 (100%), 23/25 (92%), 8%, not calculated | tumour outcome (control, treated, inhibition, significance) (Carcinogen: ETHYL CARBAMATE, 51-79-6, Dose [Inhibitor]: 0, 0.04 MG/G PER DOSE IN 0.01 ML OF 0.9% SALINE ADMINISTERED IN 4 DOSES AT 3 HR INTERVALS BEGINNING 30 MIN PRIOR TO CARC, Route [Inhibitor]: INTRAPERITONEAL, Species: MOUSE, Strain/Sex: B6C3F1/MALE, Target Tissue: Type of Lesion: LIVER: HEPATOMA, Dose [Carcinogen]: 0.25 MG/G ONCE, Promoter: NONE USED): 25/25 (100%), 24/24 (100%), 0%, not calculated | tumour outcome (control, treated, inhibition, significance) (Carcinogen: ETHYL CARBAMATE, 51-79-6, Dose [Inhibitor]: 0, 0.04 MG/G PER DOSE IN 0.01 ML OF 0.9% SALINE ADMINISTERED IN 4 DOSES AT 3 HR INTERVALS BEGINNING 30 MIN PRIOR TO CARC, Route [Inhibitor]: INTRAPERITONEAL, Species: MOUSE, Strain/Sex: B6C3F1/MALE, Target Tissue: Type of Lesion: LIVER: HEPATOMA, Dose [Carcinogen]: 0.5 MG/G ONCE, Promoter: NONE USED): 22/22 (100%), 21/22 (95%), 5%, not calculated | tumour outcome (control, treated, inhibition, significance) (Carcinogen: VINYL CARBAMATE, 15805-73-9, Dose [Inhibitor]: 0, 0.04 MG/G PER DOSE IN 0.01 ML OF 0.9% SALINE ADMINISTERED IN 4 DOSES AT 3 HR INTERVALS BEGINNING 30 MIN PRIOR TO CARC, Route [Inhibitor]: INTRAPERITONEAL, Species: MOUSE, Strain/Sex: B6C3F1/MALE, Target Tissue: Type of Lesion: LIVER: HEPATOMA, Dose [Carcinogen]: 0.003 MG/G ONCE, Promoter: NONE USED): 21/24 (88%), 25/25 (100%), -14%, not calculated | tumour outcome (control, treated, inhibition, significance) (Carcinogen: VINYL CARBAMATE, 15805-73-9, Dose [Inhibitor]: 0, 0.04 MG/G PER DOSE IN 0.01 ML OF 0.9% SALINE ADMINISTERED IN 4 DOSES AT 3 HR INTERVALS BEGINNING 30 MIN PRIOR TO CARC, Route [Inhibitor]: INTRAPERITONEAL, Species: MOUSE, Strain/Sex: B6C3F1/MALE, Target Tissue: Type of Lesion: LIVER: HEPATOMA, Dose [Carcinogen]: 0.008 MG/G ONCE, Promoter: NONE USED): 26/26 (100%), 22/23 (96%), 4%, not calculated | tumour outcome (control, treated, inhibition, significance) (Carcinogen: VINYL CARBAMATE, 15805-73-9, Dose [Inhibitor]: 0, 0.04 MG/G PER DOSE IN 0.01 ML OF 0.9% SALINE ADMINISTERED IN 4 DOSES AT 3 HR INTERVALS BEGINNING 30 MIN PRIOR TO CARC, Route [Inhibitor]: INTRAPERITONEAL, Species: MOUSE, Strain/Sex: B6C3F1/MALE, Target Tissue: Type of Lesion: LIVER: HEPATOMA, Dose [Carcinogen]: 0.025 MG/G ONCE, Promoter: NONE USED): 23/23 (100%), 24/25 (96%), 4%, not calculated

c1c[nH]cn1
tumour outcome (control, treated, inhibition, significance) (Carcinogen: N-METHYL-N-NITROSOUREA, 684-93-5, Dose [Inhibitor]: 1000 MG/KG OF LOW (3%) FAT DIET BEGINNING 1 WK POST CARCINOGEN DOSE AND CONTINUING FOR DURATION OF STUDY (STUDY DURATION, Route [Inhibitor]: ORAL, Species: RAT, Strain/Sex: SPRAGUE-DAWLEY/FEMALE, Target Tissue: Type of Lesion: MAMMARY GLAND: TUMOR, Dose [Carcinogen]: 40 MG/KG ONCE, Promoter: NONE USED): 78%, 92%, -18%, not calculated

CCCCOC(=O)c1ccccc1C(=O)OCc1ccccc1
tumour outcome (control, treated, inhibition, significance) (Carcinogen: 7,12-DIMETHYLBENZ[A]ANTHRACENE, 57-97-6, Dose [Inhibitor]: 0, 250 MG/KG IN CORN OIL 1/D FOR 7 D PRIOR TO CARCINOGEN DOSE (STUDY DURATION: 16 WK), Route [Inhibitor]: GAVAGE, Species: RAT, Strain/Sex: ?/FEMALE, Target Tissue: Type of Lesion: MAMMARY GLAND: TUMOR, Dose [Carcinogen]: 31 MG/KG IN CORN OIL ONCE, Promoter: NONE USED): 82%, 52%, 37%, p<0.05 | tumour outcome (control, treated, inhibition, significance) (Carcinogen: 7,12-DIMETHYLBENZ[A]ANTHRACENE, 57-97-6, Dose [Inhibitor]: 0, 500 MG/KG IN CORN OIL 1/D FOR 7 D PRIOR TO CARCINOGEN DOSE (STUDY DURATION: 16 WK), Route [Inhibitor]: GAVAGE, Species: RAT, Strain/Sex: ?/FEMALE, Target Tissue: Type of Lesion: MAMMARY GLAND: TUMOR, Dose [Carcinogen]: 31 MG/KG IN CORN OIL ONCE, Promoter: NONE USED): 82%, 52%, 37%, p<0.05
